Source: US20020052323A1, “Quinoline-(C=O)-(multiple amino acids)-leaving group compounds for pharmaceutical compositions and reagents” (priority 2000, published 2002)
Counter-ions that a name gives are not always drawn. Peptide text beside a SMILES is read from it. * marks the point of attachment. Cbz = O=C(OCc1ccccc1)*; CH2F = FC*

Legend:
WEHI 231 cells [1] = assay: TUNEL analysis, inhibitor alone (toxicity control); assay type: cell-based, murine; settings: no ActD
Procedure: Flow Cytometry measures the percent of the cell population undergoing apoptosis. The effect of the inhibitors is identified as a reduction in the percent of the cell population undergoing apoptosis. Cell Type: WEHI 231 cells, murine immature B cells (suspension) Plate cells at 2×10^5/ml in 10 ml of media (Total 2×10^6 cells) Preincubate caspase inhibitors (Formula I) one hour before inducing apoptosis. […] [table] Process fixed cells for Tunel using the Apo-BRDU kit from Pharmingen (San Diego, Calif.) following the manufacturer's instructions and analyze by flow cytometry.

WEHI 231 cells [2] = assay: TUNEL analysis of Actinomycin D induced apoptosis, flow cytometry; assay type: cell-based, murine; set-up: key to rank of result in TUNEL analysis: ***: Best result; **: Second best result; *: Third best result; settings: for effective concentration in TUNEL test: blind test by TUNEL method, conclusions; for efficacy in TUNEL test, in words: 10 sequences in a blind test
Procedure: Flow Cytometry measures the percent of the cell population undergoing apoptosis. The effect of the inhibitors is identified as a reduction in the percent of the cell population undergoing apoptosis. Cell Type: WEHI 231 cells, murine immature B cells (suspension) Plate cells at 2×10^5/ml in 10 ml of media (Total 2×10^6 cells) Preincubate caspase inhibitors (Formula I) one hour before inducing apoptosis. […] Actinomycin D (ActD) stock is 1 μg/μl add 10 μl/10 ml)-Treat 4 h Process for Tunel Analysis. (See Table 2 below). […] Cell Processing for Tunel Analysis and Flow Cytometry. Centrifuge cells at 300× g for 5 min and aspirate supernatant. Resuspend cells in 5.0 ml of cold 1× PBS, Spin at 300× g, 5 min. Aspirate supernatant. […] Incubate for 15 min. on ice. […] Aspirate supernatant. […] Aspirate supernatant. […] Aspirate supernatant. Resuspend the cell in 300 μl of cold IX PBS, Transfer to a 1.5 ml tube. […] Store at −20° C. at least 18 hr prior to Tunel Labeling Fixed cells are stable for at least 30 days. Process fixed cells for Tunel using the Apo-BRDU kit from Pharmingen (San Diego, Calif.) following the manufacturer's instructions and analyze by flow cytometry.

caspase 1 = target: T1, caspase 1 (Homo sapiens, UniProt P29466); assay: Caspase inhibition assay, AcYVAD-AFC substrate; assay type: biochemical; settings: from figure, antilog of log concentration; read-out: IC50 caspase 1
T1 sequence (P29466 120-297 limits assumed): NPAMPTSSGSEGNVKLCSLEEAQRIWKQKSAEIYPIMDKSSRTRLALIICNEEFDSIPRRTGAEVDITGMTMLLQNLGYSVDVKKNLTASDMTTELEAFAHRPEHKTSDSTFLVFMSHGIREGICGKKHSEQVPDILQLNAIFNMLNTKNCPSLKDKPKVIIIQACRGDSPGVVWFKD
T1 sequence (P29466 317-404 limits assumed): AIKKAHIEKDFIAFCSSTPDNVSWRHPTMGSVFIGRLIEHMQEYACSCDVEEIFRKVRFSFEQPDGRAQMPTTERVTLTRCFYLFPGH
Procedure: The determination of the IC50/μm was performed according to Gary Johnson, 9401 James Avenue, Suite No. 155, Bloomington, Minn. 55431.
Caspase Inhibition Assay:—Caspases are diluted in caspase buffer, 0.1 M HEPES, 10% sucrose 0.1% CHAPS and 10 mM DTT, pH 7.5. Caspases 1, 3, and 8 are used at a concentration of 144 U/well and caspase 9 is used at 4.8 U/well in a 96 well fluorometric plate.
Inhibitors are initially dissolved in DMSO at 10 mg/ml and further dilutions can be prepared in caspase buffer. The inhibitors are generally tested at concentrations ranging from 50 uM to 0.005 uM. These are usually prepared as 2 fold or 2.5 fold decreasing dilutions. The enzyme approximately 144 U in 120 ul caspase buffer is added to 380 ul caspase buffer containing the appropriate concentration on the inhibitor and incubated on ice for 15 min. The reactants 200 ul are then added to a black fluorimetric plate and incubated in the fluorometer at 37° C. for 30 min.
During the incubation period appropriate coumarin substrates are prepared by dilution in DMSO and caspase buffer to provide a 0.417 mM working stock. AcYVAD-AFC is used for caspase 1, AcDEVD-AFC for caspase 3. AcIETD-AFC for caspase 8 and Ac-LEHD-AFC for capsase 9. Twenty five microliters of the stock solution are added to 200 ul of the caspase and inhibitor test solutions to give a final substrate concentration of 0.046 mM.
The fluorometer is set to 400 nm excitation and 505 nm emission. The enzyme-inhibitor-substrate is allowed to incubate at for an additional twenty min. and the response is read as fluorescence units vs inhibitor concentration. The responses are plotted as percent of the maximum response (response in the absence of inhibitor) for each concentration of the inhibitor. The inhibitory activity for each inhibitor is described as the concentration of inhibitor that produces a 50% inhibition of the maximum response (IC50).

[3] = 1 μM inhibitor + ActD, WEHI 231, lower = greater inhibitory activity
[4] = 10 μM inhibitor + ActD, WEHI 231
[5] = 20 μM inhibitor + ActD, WEHI 231
[6] = 30 μM inhibitor + ActD, WEHI 231
[7] = 40 μM inhibitor + ActD, WEHI 231
[8] = 50 μM inhibitor + ActD, WEHI 231
[9] = 100 μM inhibitor + ActD, WEHI 231
[10] = markers in structure designation table

| IC50 (caspase 1) | Compound | % non-viable cells, inhibitor alone (WEHI 231 cells [1]; 20 μM Inh alone) | % non-viable cells, inhibitor alone (WEHI 231 cells [1]; 100 μM Inh alone) | % non-viable cells (WEHI 231 cells [2]; [3]) | % non-viable cells (WEHI 231 cells [2]; [4]) | % non-viable cells (WEHI 231 cells [2]; [5]) | % non-viable cells (WEHI 231 cells [2]; [6]) | % non-viable cells (WEHI 231 cells [2]; [7]) | % non-viable cells (WEHI 231 cells [2]; [8]) | % non-viable cells (WEHI 231 cells [2]; [9]) | effective concentration in TUNEL test (WEHI 231 cells [2]) | efficacy in TUNEL test, in words (WEHI 231 cells [2]) | rank of result in TUNEL analysis (WEHI 231 cells [2]; Table 3 markers) | rank of result in TUNEL analysis (WEHI 231 cells [2]; [10]) |
| --- | --- | --- | --- | --- | --- | --- | --- | --- | --- | --- | --- | --- | --- | --- |
|  | 4HQ-Ala-Asp(OMe)—CH2—OPh [Inhibitor H^1] | 3% | 2% | 81% | 92% | 88% | 91% | 85% | 82% | 83% | not effective |  |  |  |
|  | COC(=O)CC(NC(=O)CCNC(=O)c1ccc2ccccc2n1)C(=O)CF (stereo not drawn) [Inhibitor A^1, Q-βAla-Asp(OMe)-FMK] | 5% | 5% | 62% | 57% | 42% | 40% | 15% | 32% | 9% | 40 µM |  |  |  |
|  | COC(=O)CC(NC(=O)C(C)NC(=O)c1ccc2ccccc2n1)C(=O)CF (stereo not drawn) [Inhibitor D^1, Q-Ala-Asp(OMe)-FMK] | 6% | 8% | 88% | 67% | 16% | 2% | 1% | 2% | 1% | 20 µM | most efficacious | D^1* | Q-Ala-Asp(OMe)-FMK* |
|  | COC(=O)CC(NC(=O)C(C)NC(=O)C(NC(=O)OCc1ccccc1)C(C)C)C(=O)COc1c(F)cccc1F (stereo not drawn) [Inhibitor G^1, 2-Val-Ala-Asp(OMe)—CH2—OPh] | 1% | 1% | 56% | 62% | 57% | 52% | 62% | 56% | 8% | 100 µM |  |  |  |
|  | COC(=O)CC(NC(=O)C(NC(=O)c1ccc2ccccc2n1)C(C)C)C(=O)COc1c(F)cccc1F (stereo not drawn) [Inhibitor I^1, Q-Val-Asp(OMe)—CH2—OPh] | 2% | 53% | 88% | 2% | 3% | 2% | 3% | 2% | 2% | 10 µM | most efficacious | I^1*** | Q-Val-Asp(OMe)—CH2—OPh*** |
| ~940 nM | COC(=O)CC(NC(=O)C(CC(C)C)NC(=O)c1ccc2ccccc2n1)C(=O)COc1ccccc1 (stereo not drawn) [Inhibitor J^1, Q-Leu-Asp(OMe)—CH2—OPh] | 1% | 1% | 88% | 16% | 3% | 2% | 2% | 2% | 3% | 10 µM | most efficacious | J^1** | Q-Leu-Asp(OMe)—CH2—OPh** |
| ~624 nM | COC(=O)CC(NC(=O)[C@@H](NC(=O)[C@@H](N)Cc1c[nH]c2ccccc12)C(C)C)C(=O)COc1ccccc1 (stereo partly drawn) [TFA Trp-V-D(OMe)—CH2—O—Ph TFA] |  |  |  |  |  |  |  |  |  |  |  |  |  |
|  | COC(=O)CC(NC(=O)C(C)NC(=O)C(NC(=O)OCc1ccccc1)C(C)C)C(=O)CF (stereo not drawn) [Z-VAD-FMK, Benzyloxycarbonyl-Val-Ala-Asp (OMe) fluoromethylketone, reference compound] (Cbz-Val-Ala-Asp(OMe)-CH2F; configuration not given here) | 3% | 7% | 33% | 64% | 17% | 19% | 12% | 8% | 6% | 20 µM |  |  |  |
| ~139 nM | COC(=O)C[C@H](NC(=O)[C@@H](NC(=O)NCCc1c[nH]c2ccc(OC)cc12)C(C)C)C(=O)COc1c(F)cccc1F [melatonin-V-D(OMe)—CH2—O—Ph, 5-methoxytrytamine-carbonyl-Val Asp(OMe)-α-(2-oxy-2,6-Difluorophenyl) Methyl Ketone] |  |  |  |  |  |  |  |  |  |  |  |  |  |
| ~50 nM | CC(C)[C@H](NC(=O)c1ccc2ccccc2n1)C(=O)N[C@@H](CC(=O)O)C(=O)COc1ccccc1 [quinoline-(2-carbonyl)-V-D-CH2—OPh] |  |  |  |  |  |  |  |  |  |  |  |  |  |
| ~170 nM | Bzl-melatonin-V-D(OMe)—CH2—O—Ph |  |  |  |  |  |  |  |  |  |  |  |  |  |
|  | HQ-Ala-Asp(OMe)—CH2—OPh [Inhibitor E^1] | 1% | 1% | 29% | 38% | 13% | 25% | 7% | 12% | 10% | 20 µM |  |  |  |
|  | MQ-Ala-Asp(OMe)—CH2—OPh [Inhibitor F^1] | 5% | 5% | 32% | 35% | 47% | 61% | 36% | 20% | 21% | not effective |  |  |  |
|  | Q-βAla-Asp(OMe)—CH2—OPh [Inhibitor C^1] | 3% | 4% | 88% | 87% | 72% | 71% | 78% | 68% | 3% | 100 µM |  |  |  |
| ~115 nM | hydroxy Trp-TTP-V-D(OMe)—CH2—O—Ph |  |  |  |  |  |  |  |  |  |  |  |  |  |
| ~38 nM | hydroxy quinoline-(2-carbonyl)-VD-OPh |  |  |  |  |  |  |  |  |  |  |  |  |  |
| ~460 nM | indole-(2-carbonyl)-3-V-D(OMe)—CH2—O—Ph |  |  |  |  |  |  |  |  |  |  |  |  |  |
